Results published in patent US20180002320A1, “USE OF MACROCYCLIC PICOLINAMIDES AS FUNGICIDES” (DOW AGROSCIENCES LLC, priority 2014, published 2018).
Where two headings read alike, the source gives them in different places.

What was measured:
[1] = test system: Zymoseptoria tritici; experiment: Leaf Blotch of Wheat (SEPTTR) fungicidal activity; type: in vivo; conditions: Low Volume (121.5 g/H)
Protocol: Technical grades of materials were dissolved in acetone, which were then mixed with nine volumes of H2O containing 110 ppm Triton X-100. The fungicide solutions were applied onto wheat seedlings using an automated booth sprayer to run-off. All sprayed plants were allowed to air dry prior to further handling. All fungicides were evaluated using the aforementioned method for their activity vs. all target diseases, unless stated otherwise. Wheat leaf blotch and brown rust activity were also evaluated using track spray applications, in which case the fungicides were formulated as EC formulations, containing 0.1% Trycol 5941 in the spray solutions. Wheat plants (variety Yuma) were grown from seed in a greenhouse in 50% mineral soil/50% soil-less Metro mix until the first leaf was fully emerged, with 7-10 seedlings per pot. These plants were inoculated with an aqueous spore suspension of Zymoseptoria tritici either prior to or after fungicide treatments. After inoculation the plants were kept in 100% relative humidity (one day in a dark dew chamber followed by two to three days in a lighted dew chamber at 20° C.) to permit spores to germinate and infect the leaf. The plants were then transferred to a greenhouse set at 20° C. for disease to develop. When disease symptoms were fully expressed on the 1st leaves of untreated plants, infection levels were assessed on a scale of 0 to 100 percent disease severity. Percent disease control was calculated using the ratio of disease severity on treated plants relative to untreated plants.

[2] = test system: Puccinia triticina; experiment: Wheat Brown Rust (PUCCRT) fungicidal activity; type: in vivo; conditions: Low Volume (121.5 g/H)
Protocol: Technical grades of materials were dissolved in acetone, which were then mixed with nine volumes of H2O containing 110 ppm Triton X-100. The fungicide solutions were applied onto wheat seedlings using an automated booth sprayer to run-off. All sprayed plants were allowed to air dry prior to further handling. All fungicides were evaluated using the aforementioned method for their activity vs. all target diseases, unless stated otherwise. Wheat leaf blotch and brown rust activity were also evaluated using track spray applications, in which case the fungicides were formulated as EC formulations, containing 0.1% Trycol 5941 in the spray solutions. Wheat plants (variety Yuma) were grown from seed in a greenhouse in 50% mineral soil/50% soil-less Metro mix until the first leaf was fully emerged, with 7-10 seedlings per pot. These plants were inoculated with an aqueous spore suspension of Puccinia triticina either prior to or after fungicide treatments. After inoculation the plants were kept in a dark dew room at 22° C. with 100% relative humidity overnight to permit spores to germinate and infect the leaf. The plants were then transferred to a greenhouse set at 24° C. for disease to develop. Fungicide formulation, application and disease assessment followed the procedures as described in the Example A.

[3] = 24 h, 1 Day Protectant, read-out: SEPTTR 1DP disease control
[4] = 72 h, 3 Day Curative, read-out: SEPTTR 3DC disease control
[5] = 24 h, 1 Day Protectant, read-out: PUCCRT 1DP disease control
[6] = 72 h, 3 Day Curative, read-out: PUCCRT 3DC disease control

Structure (SMILES)	pest or weed control at 121.5 g/ha [1, 3]	pest or weed control at 121.5 g/ha [1, 4]	pest or weed control at 121.5 g/ha [2, 5]	pest or weed control at 121.5 g/ha [2, 6]
COc1ccnc(C(=O)N[C@H]2CCOC[C@H](Oc3ccccc3)[C@@H](Oc3ccccc3)[C@H](C)OC2=O)c1OCOC(C)=O [Compound 37]	> 80%	> 80%	> 80%	> 80%
CCCOC(=O)O[C@H]1CCCC[C@H](NC(=O)c2nccc(OC)c2OCOC(C)=O)C(=O)O[C@@H](C)[C@@H]1OCC(C)C [Compound 38]	> 80%	> 80%	> 80%	< 80%
COc1ccnc(C(=O)N[C@H]2CCOC[C@H](OC)[C@@H](Oc3ccccc3)[C@H](C)OC2=O)c1OCOC(C)=O [Compound 40]	> 80%	> 80%	> 80%	> 80%
CCCO[C@H]1COCC[C@H](NC(=O)c2nccc(OC)c2OCOC(C)=O)C(=O)O[C@@H](C)[C@@H]1Oc1ccccc1 [Compound 41]	> 80%	> 80%	> 80%	> 80%
CCCO[C@H]1[C@H](C)OC(=O)[C@@H](NC(=O)c2nccc(OC)c2OCOC(C)=O)CCOC[C@@H]1Oc1ccccc1 [Compound 42]	< 80%	< 80%	> 80%	< 80%
COc1ccnc(C(=O)N[C@H]2CCOC[C@H](OC(=O)C(C)C)[C@@H](Oc3ccccc3)[C@H](C)OC2=O)c1OCOC(C)=O [Compound 44]	< 80%	< 80%	> 80%	> 80%
COc1ccnc(C(=O)N[C@H]2CCOC[C@H](OCC(C)C)[C@@H](Oc3ccccc3)[C@H](C)OC2=O)c1OCOC(C)=O [Compound 45]	> 80%	> 80%	> 80%	> 80%
COc1ccnc(C(=O)N[C@H]2CCOC[C@H](Oc3ccccc3)[C@@H](OCC(C)C)[C@H](C)OC2=O)c1OCOC(C)=O [Compound 46]	> 80%	< 80%	> 80%	< 80%
COc1ccnc(C(=O)N[C@H]2CCOC[C@H](Oc3ccccc3)[C@@H](Oc3ccccc3)[C@H](C)OC2=O)c1OC(C)=O [Compound 47]	> 80%	> 80%	> 80%	> 80%
COc1ccnc(C(=O)N[C@H]2CCOC[C@H](OC)[C@@H](Oc3ccccc3)[C@H](C)OC2=O)c1OC(C)=O [Compound 48]	> 80%	> 80%	> 80%	> 80%
CC(=O)OCOc1cccnc1C(=O)N[C@H]1CCCC[C@H](CC2CCCC2)[C@@H](Oc2ccccc2)[C@H](C)OC1=O [Compound 49]	< 80%	–	> 80%	< 80%
COc1ccnc(C(=O)N[C@H]2CCCC[C@H](CC3CCCC3)[C@@H](Oc3ccccc3)[C@H](C)OC2=O)c1OCOC(C)=O [Compound 50]	> 80%	< 80%	> 80%	> 80%
CCOCC(=O)OCOc1c(OC)ccnc1C(=O)N[C@H]1CCCC[C@H](CC2CCCC2)[C@@H](Oc2ccccc2)[C@H](C)OC1=O [Compound 51, ((2-(((3S,8R,9R,10S)-8-(cyclopentylmethyl)-10-methyl-2-oxo-9-phenoxyoxecan-3-yl)carbamoyl)-4-methoxypyridin-3-yl)oxy)methyl 2-ethoxyacetate]	> 80%	–	> 80%	< 80%
COc1ccnc(C(=O)N[C@H]2CCCC[C@H](CC3CCCC3)[C@@H](Oc3ccccc3)[C@H](C)OC2=O)c1OC(C)=O [Compound 52]	> 80%	–	> 80%	< 80%
C=CCO[C@@H]1[C@@H](CC2CCCC2)CCCC[C@H](NC(=O)c2nccc(OC)c2OCOC(C)=O)C(=O)O[C@H]1C [Compound 53]	–	< 80%	< 80%	–
COc1ccnc(C(=O)N[C@H]2CCCC[C@H](CC3CCCC3)[C@@H](OC(=O)C(C)C)[C@H](C)OC2=O)c1OCOC(C)=O [Compound 54]	> 80%	–	> 80%	< 80%
CCOCC(=O)OCOc1c(OC)ccnc1C(=O)N[C@H]1CCCC[C@H](CC2CCCC2)[C@@H](OC(=O)C(C)C)[C@H](C)OC1=O [Compound 55]	< 80%	< 80%	> 80%	< 80%
COc1ccnc(C(=O)N[C@H]2CCCC[C@H](CC3CCCC3)[C@@H](OC(=O)C(C)C)[C@H](C)OC2=O)c1OC(C)=O [Compound 56, (2S,3R,4R,9S)-9-(3-acetoxy-4-methoxypicolinamido)-4-(cyclopentylmethyl)-2-methyl-10-oxooxecan-3-yl isobutyrate]	> 80%	< 80%	> 80%	< 80%
CCCO[C@@H]1[C@@H](CC2CCCC2)CCCC[C@H](NC(=O)c2nccc(OC)c2OCOC(C)=O)C(=O)O[C@H]1C [Compound 57]	< 80%	–	> 80%	< 80%
CCCO[C@@H]1[C@@H](CC2CCCC2)CCCC[C@H](NC(=O)c2nccc(OC)c2OC(C)=O)C(=O)O[C@H]1C [Compound 58]	< 80%	< 80%	> 80%	< 80%
COc1ccnc(C(=O)N[C@H]2CCCC[C@H](CC3CCCC3)[C@@H](OC)[C@H](C)OC2=O)c1OC(C)=O [Compound 59]	< 80%	–	> 80%	> 80%
COc1ccnc(C(=O)N[C@H]2CCCC[C@H](Cc3ccccc3)[C@@H](OC(=O)C(C)C)[C@H](C)OC2=O)c1OCOC(C)=O [Compound 60]	> 80%	> 80%	> 80%	> 80%
COc1ccnc(C(=O)N[C@H]2CCCC[C@H](CC3CCCC3)[C@@H](OC)[C@H](C)OC2=O)c1OCOC(C)=O [Compound 61]	< 80%	< 80%	> 80%	> 80%
COc1ccnc(C(=O)N[C@H]2CCCC[C@H](Cc3ccccc3)[C@@H](Oc3ccccc3)[C@H](C)OC2=O)c1OCOC(C)=O [Compound 62]	> 80%	> 80%	> 80%	< 80%
COc1ccnc(C(=O)N[C@H]2CCCC[C@H](Cc3ccccc3)[C@@H](Oc3ccccc3)[C@H](C)OC2=O)c1OC(C)=O [Compound 64]	> 80%	> 80%	> 80%	< 80%
COc1ccc(C[C@H]2CCOC[C@H](NC(=O)c3nccc(OC)c3OC(C)=O)C(=O)O[C@@H](C)[C@@H]2Oc2ccccc2)cc1 [Compound 65]	> 80%	< 80%	> 80%	< 80%
COc1ccc(C[C@H]2CCOC[C@H](NC(=O)c3nccc(OC)c3OCOC(C)=O)C(=O)O[C@@H](C)[C@@H]2Oc2ccccc2)cc1 [Compound 66]	> 80%	> 80%	> 80%	< 80%
